Reference: PubChem BioAssay (NCI)
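Each compound was tested at five concentrations against cells in 96-well plates for 48 hours. TGI marks complete inhibition of growth.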

Assays:
Assay in all cases: inhibition of tumour cell growth, NCI panel, 48 h
[1] = tested on: CCRF-CEM leukemia
[2] = tested on: SK-MEL-28 melanoma
[3] = tested on: 786-0 renal
[4] = tested on: HT29 colon
[5] = tested on: HCT-116 colon
[6] = tested on: RPMI-8226 leukemia
[7] = tested on: NCI-H226 lung
[8] = tested on: NCI-H460 lung
[9] = tested on: MDA-MB-435
[10] = tested on: HCT-15 colon
[11] = tested on: MALME-3M melanoma
[12] = tested on: HS 578T breast
[13] = tested on: OVCAR-4 ovarian
[14] = tested on: T-47D breast
[15] = tested on: SK-MEL-2 melanoma
[16] = tested on: EKVX NSCLC
[17] = tested on: SNB-19 CNS
[18] = tested on: SW-620 colon
[19] = tested on: CAKI-1 renal
[20] = tested on: TK-10 renal
[21] = tested on: NCI-H23 lung
[22] = tested on: MDA-N
[23] = tested on: UO-31 renal
[24] = tested on: LOX IMVI melanoma
[25] = tested on: NCI-H522 lung
[26] = tested on: SR leukemia
[27] = tested on: HOP-92 NSCLC
[28] = tested on: SK-OV-3 ovarian
[29] = tested on: MOLT-4 leukemia
[30] = tested on: A549 NSCLC
[31] = tested on: SN12C renal
[32] = tested on: PC-3 prostate
[33] = tested on: OVCAR-8 ovarian
[34] = tested on: IGROV1 ovarian
[35] = tested on: MDA-MB-231 breast
[36] = tested on: ACHN renal
[37] = tested on: UACC-257 melanoma
[38] = tested on: RXF 393 renal
[39] = tested on: NCI/ADR-RES ovarian
[40] = tested on: HCC-2998 colon
[41] = tested on: DU-145 prostate
[42] = tested on: KM12 colon
[43] = tested on: COLO 205 colon
[44] = tested on: K-562 leukemia
[45] = tested on: U251 CNS
[46] = tested on: HOP-62 NSCLC
[47] = tested on: A498 renal
[48] = tested on: UACC-62 melanoma
[49] = tested on: SF-268 CNS
[50] = tested on: SF-539 CNS
[51] = tested on: SNB-75 CNS
[52] = tested on: OVCAR-5 ovarian
[53] = tested on: SF-295 CNS
[54] = tested on: SK-MEL-5 melanoma
[55] = tested on: BT-549 breast
[56] = tested on: OVCAR-3 ovarian
[57] = tested on: M14 melanoma
[58] = tested on: MCF7 breast
[59] = tested on: HL-60(TB) leukemia

## N=C1N(/N=C/c2ccccn2)C(=Nc2ccccc2)C(=S)N1c1ccccc1
[1]
  TGI: > 100 µM
[2]
  TGI: 23 µM
[3]
  TGI: 13.7 µM
[4]
  TGI: 13.6 µM
[5]
  TGI: 8.34 µM
[6]
  TGI: > 100 µM
[7]
  TGI: 32.9 µM
[8]
  TGI: 15.9 µM
[9]
  TGI: 17.4 µM
[10]
  TGI: 12.2 µM
[11]
  TGI: 22.8 µM
[12]
  TGI: 29.4 µM
[13]
  TGI: 23.9 µM
[14]
  TGI: 21.1 µM
[15]
  TGI: 12.8 µM
[16]
  TGI: 15.9 µM
[17]
  TGI: 31.2 µM
[18]
  TGI: 16.3 µM
[19]
  TGI: 20 µM
[20]
  TGI: 22.9 µM
[21]
  TGI: 19.5 µM
[22]
  TGI: 11.8 µM
[23]
  TGI: 16 µM
[24]
  TGI: 11.3 µM
[25]
  TGI: 3.72 µM
[26]
  TGI: > 100 µM
[27]
  TGI: 22.9 µM
[28]
  TGI: 42.8 µM
[29]
  TGI: > 100 µM
[30]
  TGI: 23.8 µM
[31]
  TGI: 17.9 µM
[32]
  TGI: 15.8 µM
[33]
  TGI: 13.8 µM
[34]
  TGI: 18.8 µM
[35]
  TGI: 19.8 µM
[36]
  TGI: 7.96 µM
[37]
  TGI: 21.3 µM
[38]
  TGI: 16.4 µM
[39]
  TGI: 10.6 µM
[40]
  TGI: 22 µM
[41]
  TGI: 13.4 µM
[42]
  TGI: 17.3 µM
[43]
  TGI: 5.36 µM
[44]
  TGI: > 100 µM
[45]
  TGI: 20.7 µM
[46]
  TGI: 22 µM
[47]
  TGI: 39.5 µM
[48]
  TGI: 4.61 µM
[49]
  TGI: 18.3 µM
[50]
  TGI: 15.8 µM
[51]
  TGI: 42.2 µM
[52]
  TGI: 17.5 µM
[53]
  TGI: 19 µM
[54]
  TGI: 16.5 µM

## COc1cccc(CC2C(=O)N=C(NC(C)=O)N2C)c1OC(C)=O (configuration not stated)
[1]
  TGI: > 100 µM
[2]
  TGI: > 100 µM
[55]
  TGI: > 100 µM
[56]
  TGI: > 100 µM
[3]
  TGI: > 100 µM
[4]
  TGI: > 100 µM
[5]
  TGI: > 100 µM
[7]
  TGI: > 100 µM
[8]
  TGI: > 100 µM
[9]
  TGI: > 100 µM
[10]
  TGI: > 100 µM
[12]
  TGI: > 100 µM
[13]
  TGI: > 100 µM
[15]
  TGI: > 100 µM
[16]
  TGI: > 100 µM
[17]
  TGI: > 100 µM
[18]
  TGI: > 100 µM
[19]
  TGI: > 100 µM
[20]
  TGI: > 100 µM
[21]
  TGI: > 100 µM
[22]
  TGI: > 100 µM
[23]
  TGI: > 100 µM
[24]
  TGI: > 100 µM
[25]
  TGI: > 100 µM
[27]
  TGI: > 100 µM
[28]
  TGI: > 100 µM
[29]
  TGI: > 100 µM
[30]
  TGI: > 100 µM
[31]
  TGI: > 100 µM
[57]
  TGI: > 100 µM
[32]
  TGI: > 100 µM
[58]
  TGI: > 100 µM
[33]
  TGI: > 100 µM
[34]
  TGI: > 100 µM
[35]
  TGI: > 100 µM
[36]
  TGI: > 100 µM
[37]
  TGI: > 100 µM
[38]
  TGI: > 100 µM
[39]
  TGI: > 100 µM
[40]
  TGI: > 100 µM
[41]
  TGI: > 100 µM
[42]
  TGI: > 100 µM
[43]
  TGI: > 100 µM
[45]
  TGI: > 100 µM
[46]
  TGI: > 100 µM
[48]
  TGI: > 100 µM
[49]
  TGI: > 100 µM
[50]
  TGI: > 100 µM
[51]
  TGI: > 100 µM
[52]
  TGI: > 100 µM
[53]
  TGI: > 100 µM
[59]
  TGI: > 100 µM
[54]
  TGI: > 100 µM
